What was measured:
CRF receptors = biological target: T1, CRF receptors (Homo sapiens, UniProt P34998); assay: CRF receptor binding assay (125I-CRF displacement); conditions: membrane pellets containing CRF receptors; 125I-CRF 100 pM; room temperature for 2 hours; non specific binding defined by 1 uM cold CRF
T1 sequence (P34998 24-415): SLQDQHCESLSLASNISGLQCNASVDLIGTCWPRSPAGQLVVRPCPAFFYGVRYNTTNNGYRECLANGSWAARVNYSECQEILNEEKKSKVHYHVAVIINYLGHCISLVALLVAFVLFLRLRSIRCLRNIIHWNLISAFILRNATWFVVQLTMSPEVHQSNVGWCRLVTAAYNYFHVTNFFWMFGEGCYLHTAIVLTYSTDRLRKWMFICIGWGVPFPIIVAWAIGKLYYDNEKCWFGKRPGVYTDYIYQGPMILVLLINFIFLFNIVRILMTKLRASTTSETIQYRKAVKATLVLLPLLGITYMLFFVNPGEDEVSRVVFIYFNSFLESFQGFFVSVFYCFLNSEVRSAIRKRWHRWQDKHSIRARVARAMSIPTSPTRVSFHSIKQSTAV
Protocol: Assay for CRF Receptor Binding Activity
CRF receptor binding was performed using a modified version of the assay described by Grigoriadis and De Souza (Biochemical, Pharmacological, and Autoradiographic Methods to Study Corticotropin-Releasing Factor Receptors. Methods in Neurosciences, Vol. 5, 1991). Membrane pellets containing CRF receptors were resuspended in 50 mM Tris buffer pH 7.7 containing 10 mM MgCl2 and 2 mM EGTA and centrifuged for 10 minutes at 48000 g. Membranes were washed again and brought to a final concentration of 1500 ug/ml in binding buffer (Tris buffer above with 0.1% BSA, n 0.15 M bacitracin and 0.01 mg/ml aprotinin.). For the binding assay, 100 ul of the membrane preparation was added to 96 well microtube plates containing 100 ul of 125I-CRF (SA 2200 Ci/mmol, final concentration of 100 pM) and 50 ul of drug. Binding was carried out at room temperature for 2 hours. Plates were then harvested on a Brandel 96 well cell harvester and filters were counted for gamma emissions on a Wallac 1205 Betaplate liquid scintillation counter. Non specific binding was defined by 1 uM cold CRF.

## CCCN(CCC)c1cc(C)nc2c1c1c(n2-c2c(C)cc(C)cc2C)CCCC1 [Compound 1, N,N-Dipropyl-2-methyl-6,7,8,9-tetrahydro-9-(2,4,6-trimethylphenyl)-5H-pyrido[2,3-b]indol-4-amine]
other
  melting point: 117 to 118 °C
CRF receptors
  IC50: 11 nM

Reference: patent publication US6670371B2, “Certain pyrrolopyridine derivatives: novel CRF1 specific ligands” (Neurogen Corporation, priority 1995, dated 2003)
